ChEMBL document CHEMBL1152272, “Inhibitor scaffolds for 2-oxoglutarate-dependent histone lysine demethylases” (J Med Chem, 2008)
pIC50, pKi: −log10 of the molar value.

Columns and labels:
[1] = Inhibition of 2-oxoglutarate-dependent human JMJD2E in presence of excess 2-oxoglutarate and 10 uM Fe2 by FDH coupled assay
[2] = Inhibition of 2-oxoglutarate-dependent human JMJD2E in presence of excess H3K9me3 peptide and 10 uM Fe2 by FDH coupled assay
[3] = Inhibition of 2-oxoglutarate-dependent human JMJD2E preincubated for 30 mins by FDH coupled assay
[4] = molecular target: Hypoxia-inducible factor 1-alpha inhibitor (Homo sapiens, UniProt Q9NWT6); assay: Inhibition of human FIH
[5] = molecular target: T1, Egl nine homolog 1 (Homo sapiens, UniProt Q9GZT9); assay: Inhibition of 2-oxoglutarate-dependent human recombinant HIF PHD2 preincubated for 1 hr
[6] = Inhibition of 2-oxoglutarate-dependent human JMJD2E in presence of 50 uM Fe by FDH coupled assay
[7] = Inhibition of human collagene prolyl-4-hydroxylase
[8] = Inhibition of human collagene prolyl-3-hydroxylase
[9] = molecular target: Prolyl hydroxylase EGLN2 (Homo sapiens, UniProt Q96KS0); assay: Inhibition of human recombinant HIF PHD1
[10] = molecular target: Prolyl hydroxylase EGLN3 (Homo sapiens, UniProt Q9H6Z9); assay: Inhibition of human recombinant HIF PHD3
[11] = molecular target: T1, Egl nine homolog 1; assay: Inhibition of human recombinant PHD2

Sequence of Prolyl hydroxylase EGLN3 (Q9H6Z9 whole entry): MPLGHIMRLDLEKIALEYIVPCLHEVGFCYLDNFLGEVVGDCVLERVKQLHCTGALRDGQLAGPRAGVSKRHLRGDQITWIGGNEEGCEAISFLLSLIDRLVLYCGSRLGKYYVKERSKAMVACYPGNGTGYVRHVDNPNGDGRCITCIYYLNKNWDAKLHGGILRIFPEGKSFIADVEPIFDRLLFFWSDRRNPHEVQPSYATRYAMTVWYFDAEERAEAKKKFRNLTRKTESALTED
Sequence of Prolyl hydroxylase EGLN2 (Q96KS0 whole entry): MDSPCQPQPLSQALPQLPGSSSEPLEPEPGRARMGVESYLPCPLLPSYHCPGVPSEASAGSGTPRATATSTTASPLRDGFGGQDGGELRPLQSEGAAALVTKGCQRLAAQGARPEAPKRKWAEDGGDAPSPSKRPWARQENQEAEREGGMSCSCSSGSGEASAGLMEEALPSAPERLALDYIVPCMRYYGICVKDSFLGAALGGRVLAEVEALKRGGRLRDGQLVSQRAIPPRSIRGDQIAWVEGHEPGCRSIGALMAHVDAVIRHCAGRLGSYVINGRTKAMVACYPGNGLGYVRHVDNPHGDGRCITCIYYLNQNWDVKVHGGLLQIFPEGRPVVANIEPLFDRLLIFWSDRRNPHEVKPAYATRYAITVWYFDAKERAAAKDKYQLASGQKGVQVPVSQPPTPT
T1 sequence (Q9GZT9 whole entry): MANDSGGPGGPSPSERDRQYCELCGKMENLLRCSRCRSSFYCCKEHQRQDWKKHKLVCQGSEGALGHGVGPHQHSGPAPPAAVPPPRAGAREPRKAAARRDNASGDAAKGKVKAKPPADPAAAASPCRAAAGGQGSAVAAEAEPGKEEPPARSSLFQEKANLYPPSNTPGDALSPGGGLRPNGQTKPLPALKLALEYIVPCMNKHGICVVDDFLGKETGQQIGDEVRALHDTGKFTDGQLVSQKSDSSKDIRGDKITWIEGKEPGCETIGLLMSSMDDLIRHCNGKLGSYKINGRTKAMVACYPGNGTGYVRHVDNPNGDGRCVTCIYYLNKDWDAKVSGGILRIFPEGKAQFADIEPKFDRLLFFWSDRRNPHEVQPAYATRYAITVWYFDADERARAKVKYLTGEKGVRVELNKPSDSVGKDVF
Sequence of Hypoxia-inducible factor 1-alpha inhibitor (Q9NWT6 whole entry): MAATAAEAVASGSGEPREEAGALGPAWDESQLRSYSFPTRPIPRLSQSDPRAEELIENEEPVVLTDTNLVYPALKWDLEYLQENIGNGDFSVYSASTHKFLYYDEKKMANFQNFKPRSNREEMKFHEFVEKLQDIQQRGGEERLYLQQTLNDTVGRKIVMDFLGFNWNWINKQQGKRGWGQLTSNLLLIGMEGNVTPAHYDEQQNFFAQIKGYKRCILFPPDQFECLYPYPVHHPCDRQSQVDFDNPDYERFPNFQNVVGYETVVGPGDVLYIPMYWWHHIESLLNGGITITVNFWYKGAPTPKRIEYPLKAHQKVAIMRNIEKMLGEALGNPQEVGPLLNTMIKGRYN

O=C(O)C(=O)N[C@H](Cc1ccccc1)C(=O)O
pIC50 [1]: 3.23

O=C(O)C(=O)N[C@H](CCc1ccccc1)C(=O)O
pIC50 [1]: 3.57 | pIC50 [2]: 4.00 | pIC50 [3]: 4.41

O=C(O)c1cc(C(=O)O)ncn1
pIC50 [1]: 4.14 | pIC50 [2]: 4.57

O=C(O)CNC(=O)C(=O)O [N-OXALYLGLYCINE]
pKi [4]: 2.92

O=C(O)/C=C/C(=O)O [FUMARIC ACID]
pIC50 [1]: < 2.00 | pIC50 [2]: 2.80 | pIC50 [3]: 2.64 | pIC50 [5]: 5.52

O=C(O)CCC(=O)O [SUCCINIC ACID]
pIC50 [1]: < 2.00 | pIC50 [2]: 3.15 | pIC50 [3]: 3.49

CC(/C=C/C(=O)NO)=C\[C@@H](C)C(=O)c1ccc(N(C)C)cc1 [TRICHOSTATIN]
pIC50 [3]: 4.55

O=C(O)c1cccnc1C(=O)O [QUINOLINIC ACID]
pIC50 [1]: < 2.00 | pIC50 [2]: < 2.30

O=C(O)c1ccnc(C(=O)O)c1
pIC50 [1]: 5.33 | pIC50 [6]: 5.74 | pKi [7]: 5.70 | pKi [8]: 5.05 | pKi [9]: 5.15 | pKi [10]: 5.15

O=C(NO)c1cc(O)ccc1Oc1ccccc1
pIC50 [1]: 3.47 | pIC50 [2]: 3.44

COc1ccc(O)cc1C(=O)NO
pIC50 [1]: 3.52 | pIC50 [2]: 3.64 | pIC50 [6]: 3.80

O=C(O)c1cccc(C(=O)O)n1 [DIPICOLINIC ACID]
pIC50 [1]: 3.60 | pIC50 [2]: 3.92 | pIC50 [6]: 3.92

O=C(O)c1cncc(C(=O)O)c1
pIC50 [1]: < 2.00 | pIC50 [2]: < 2.00

O=C(NO)c1cccc(O)c1
pIC50 [1]: 3.52 | pIC50 [2]: 4.55 | pIC50 [3]: 5.32 | pIC50 [6]: 4.72

O=C(O)c1ccc(C(=O)O)nc1 [PYRIDINE-2,5-DICARBOXYLIC ACID]
pKi [11]: < 3.52 | pIC50 [1]: 2.72 | pIC50 [2]: 3.74 | pKi [7]: 6.10 | pKi [8]: < 3.00 | pKi [9]: < 3.52 | pKi [10]: < 3.52

CCCC(=O)O [BUTYRIC ACID]
pIC50 [1]: < 2.00 | pIC50 [2]: < 2.00

O=C(O)c1ccncc1C(=O)O
pIC50 [1]: < 2.00 | pIC50 [2]: < 2.00
